Experimental data from patent publication US20250312409A1, “METHODS OF TREATING DILATED CARDIOMYOPATHY AND HEART FAILURE” (ARIZONA BOARD OF REGENTS ON BEHALF OF THE UNIVERSITY OF …, priority 2022, published 2025).
Several values for one entry are separate records, joined by “and”; a condition that tells them apart may be missing. Equal entries are not always repeated. Non-standard residues stand in square brackets, D forms with d. Residues, ends and D or L forms follow the SMILES beside them. *: point of attachment. dPhe(4-NHCONH2) = NC(=O)Nc1ccc(C[C@@H](N)C(=O)O)cc1; Dihydroorotyl(S) = O=C1C[C@@H](C(=O)*)NC(=O)N1; dPhe(4-Cl) = N[C@H](Cc1ccc(Cl)cc1)C(=O)O; Phe(4-NH2) = Nc1ccc(C[C@H](N)C(=O)O)cc1; d2Nal = N[C@H](Cc1ccc2ccccc2c1)C(=O)O; Lys(iPr) = CC(C)NCCCC[C@H](N)C(=O)O; d3Pal = N[C@H](Cc1cccnc1)C(=O)O

Columns and labels:
castrated male DCM mice = test: Partial restoration of T (implanted pellets) in castrated DCM mice; assay type: in vivo, mouse
Description: Ejection fraction (EF, %) was analyzed in littermate DCM male mice (on C57BL/6J background) at 20 weeks of age corresponding to Stage D heart failure (HF) in non-castrated DCM mice. […] Dotted line: level in WT congenic group (n=8). T plasma levels analyzed by ELISA. Data analyzed by One-way-ANOVA with Tukey's multiple comparison test and represent mean+/−SEM; *=between DCM groups; **P<0.001; +=DCM groups vs. WT group: ++++P<0.0001.
FIGS. 2A-2B show lowering testosterone (T) levels increases cGMP levels in plasma (FIG. 2A) and cytosol fraction of cardiac LV extract (FIG. 2B) of male DCM mice. cGMP was analyzed in littermate mice by ELISA; data were normalized to 100 ug of total protein in extracts. Groups: at 20 weeks of age=Stage D heart failure (HF) in non-castrated DCM mice. […] Dotted line: level in WT congenic group (n=8). T plasma levels analyzed by ELISA. Data analyzed by One-way-ANOVA with Tukey's multiple comparison test and represent mean+/−SEM; *=between DCM groups; **P<0.001; +=DCM groups vs. WT group: ++++P<0.0001.
Referring to FIG. 1, T suppression in male DCM mice (low level) by surgical castration (initiated at HF stage A) improves systolic dysfunction vs. non-castrated DCM group (normal level).

[1] = test system: male and female mice with DCM and WT littermates; settings: mouse, in vivo
humans and mice = settings: cited from earlier work
male DCM mice [2] = test: Plasma biomarkers (ELISA) in degarelix-treated DCM mice; assay type: in vivo, mouse; settings: 20 weeks of age
Description: Ejection fraction (EF, %) (FIG. 4A), heart-to-body weight ratios, HW/BW (FIG. 4B), lung-to-body weight ratios, LW/BW, (FIG. 4C) and pleural effusion, (FIG. 4D) were analyzed in male mice with DCM and WT control mice (C57BL/6J) at 20 weeks of age corresponding to Stage D HF in non-treated DCM mice. Groups: Normal non-T-treated DCM mice (black, left bar); Low T ( 20%) DCM mice treated with degarelix, 15 mg/kg subcutaneous injection every 4 weeks (blue, right bar). Dotted line: Levels in WT congenic group (n=8). T plasma level analyzed by ELISA. Data (FIG. 4A-4C) analyzed by One-way-ANOVA with Tukey's multiple comparison test and represent mean t SEM. (FIG. 4D) analyzed by Fisher exact test. […] Groups: at 20 weeks of age=Stage D HF in non-castrated DCM mice. Normal T (100%) non-treated DCM mice (black, left bar); Low T ( 17%) castrated or degarelix-treated DCM mice (blue, right bar); Dotted line: Levels in WT congenic group (n=6-8). T plasma level analyzed by ELISA. Data analyzed by One-way-ANOVA with Tukey's multiple comparison test and represented as mean f SEM; +++P<0.001 in DCM vs. WT group; ****P<0.0001 in castrated vs non-castrated DCM groups. […] Plasma biomarkers levels were analyzed in littermate mice with and without DCM. […] Groups: Normal T, non-treated DCM mice (black, left bar); Low T ( 20%), DCM mice treated with degarelix, 15 mg/kg subcutaneous injection every 4 weeks (blue, right bar). Dotted line: level in WT congenic group (n=6). T plasma level analyzed by ELISA. Data analyzed by One-way-ANOVA with Tukey's multiple comparison test and represent mean t SEM; *=between DCM groups: **P<0.01; DCM groups vs. WT group: ++++P<0.0001; +++P<0.001.

male DCM mice [3] = test: Degarelix treatment in progressive DCM mouse model: cardiac function, remodeling, edema, HF; assay type: in vivo
Description: Ejection fraction (EF, %) (FIG. 4A), heart-to-body weight ratios, HW/BW (FIG. 4B), lung-to-body weight ratios, LW/BW, (FIG. 4C) and pleural effusion, (FIG. 4D) were analyzed in male mice with DCM and WT control mice (C57BL/6J) at 20 weeks of age corresponding to Stage D HF in non-treated DCM mice. Groups: Normal non-T-treated DCM mice (black, left bar); Low T (˜20%) DCM mice treated with degarelix, 15 mg/kg subcutaneous injection every 4 weeks (blue, right bar). Dotted line: Levels in WT congenic group (n=8). T plasma level analyzed by ELISA. Data (FIG. 4A-4C) analyzed by One-way-ANOVA with Tukey's multiple comparison test and represent mean t SEM. (FIG. 4D) analyzed by Fisher exact test.
To gain translational insights relevant to human DCM-HF, inventors analyzed the outcome of T-lowering therapy in a well-established mouse progressive DCM model on C57BL/6J strain with defined age-related HF stages (time points) for evaluation of systolic function, edema, blood sample collections, etc., in studies of male and female DCM mice. This animal model is normotensive and without kidney dysfunction, and arrhythmia, which excludes variables of blood pressure, arrhythmias, and kidney dysfunction.
(§1) Treatment was initiated at 4 weeks of age when mice were at risk for DCM. The EF was analyzed at 20 weeks when DCM untreated mice progressed to Stage D HF. […] This treatment also elevated EF in males WT vs. untreated WT group (Mann-Whitney test: P<0.01).

male WT mice (C57BL/6J) = test: Degarelix treatment of WT control mice (EF, plasma ANP and cGMP); assay type: in vivo, mouse; settings: male WT vs untreated WT group
Description: as §1

C[C@]12CC[C@H]3[C@@H](CCC4=CC(=O)CC[C@@]43C)[C@@H]1CC[C@@H]2O [T, testosterone]
cGMP levels in plasma (castrated male DCM mice; Reduced T vs Low T castrated DCM mice, FIG. 2A): lowered cGMP levels | cGMP levels in cardiac LV tissue (castrated male DCM mice; Reduced T vs Low T castrated DCM mice, FIG. 2B): lowered cGMP levels | T plasma level (relative to Normal T, 100%) (castrated male DCM mice; castrated DCM mice with partially restored T, 20 weeks of age, ELISA): ~60% | Ejection fraction (EF) (castrated male DCM mice; castrated DCM mice, implanted pellets for 3 months, vs castrated (Low T), FIG. 1): trend toward reduced EF

CC(=O)N[C@H](Cc1ccc2ccccc2c1)C(=O)N[C@H](Cc1ccc(Cl)cc1)C(=O)N[C@H](Cc1cccnc1)C(=O)N[C@@H](CO)C(=O)N[C@@H](Cc1ccc(NC(=O)[C@@H]2CC(=O)NC(=O)N2)cc1)C(=O)N[C@H](Cc1ccc(NC(N)=O)cc1)C(=O)N[C@@H](CC(C)C)C(=O)N[C@@H](CCCCNC(C)C)C(=O)N1CCC[C@H]1C(=O)N[C@H](C)C(N)=O [degarelix] (Ac-[d2Nal][dPhe(4-Cl)][d3Pal]S[Phe(4-NH2)](Dihydroorotyl(S))[dPhe(4-NHCONH2)]L[Lys(iPr)]P[dA]-NH2)
body weights [1]: did not influence | motor function [1]: did not influence | circulating T levels (humans and mice; humans and mice, reversible, without T surge and clinical side effects): to surgical castration level | muscle mass (humans and mice; in vivo): does not affect muscle mass | plasma norepinephrine levels (male DCM mice [2]; FIG. 5A): lowering norepinephrine plasma levels | plasma renin activity (PRA) levels (male DCM mice [2]; FIG. 5C): normalization of PRA levels | pro-renin receptor ((P)RR) levels (male DCM mice [2]; FIG. 5E): normalization of (P)RR levels | total renin levels in circulation (male DCM mice [2]; FIG. 5F): did not affect total renin levels | plasma ANP levels (analyzed as NT-ANP) (male DCM mice [2]; degarelix 15 mg/kg s.c. every 4 weeks, FIG. 6A): increases plasma levels of ANP | plasma cGMP levels (male DCM mice [2]; degarelix 15 mg/kg s.c. every 4 weeks, FIG. 6B): increases plasma levels | T plasma level (relative to Normal T, 100%) (male DCM mice [2]; degarelix 15 mg/kg subcutaneous every 4 weeks, ELISA): ~20% and ~17% | heart failure (HF) (male DCM mice [3]; 20 weeks of age): attenuates HF | heart-to-body weight ratio, HW/BW (male DCM mice [3]; 20 weeks of age, FIG. 4B, P<0.001): reduces pathologically elevated heart | lung-to-body weight ratio, LW/BW (pulmonary edema) (male DCM mice [3]; 20 weeks of age, FIG. 4C, P<0.01): reduced pulmonary edema | pleural effusion (male DCM mice [3]; 20 weeks of age, FIG. 4D, P<0.05, Fisher exact test): reduction | Ejection fraction (EF) (male DCM mice [3]; treatment from 4 weeks of age, analyzed at 20 weeks (Stage D HF in untreated), vs untreated DCM, FIG. 4A): significantly improved EF | Ejection fraction (EF) (male WT mice (C57BL/6J); Mann-Whitney P<0.01): elevated EF | plasma ANP levels (male WT mice (C57BL/6J); P<0.001 Mann-Whitney): elevated ANP and cGMP plasma levels | plasma cGMP levels (male WT mice (C57BL/6J); P<0.001 Mann-Whitney): elevated ANP and cGMP plasma levels
